For experiment [1], the target named is GDP-bound KRAS protein (aa 1-169), containing both G12D and C118A amino acid substitutions (Homo sapiens (Human), UniProt P01116, C118A/G12D). Nature of the experiment: KRAS G12D Coupled Nucleotide Exchange Assay. The conditions noted are these: read-out: KRAS G12D Coupled Exchange IC50. The format is biochemical.
For experiment [2], the system named is Phosphorylation of ERK1/2 in AsPC-1 cells. Kind of experiment: Phospho-ERK1/2 MSD Assay. The format is cell-based, human. The conditions noted are these: read-out: 2 h p-ERK (AsPC-1 cells), IC50. In a few lines: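 Read-out: MSD electrochemiluminescent detection of phosphorylated ERK1/2 in whole-cell lysates, fitted to a 4-parameter logistic curve for IC50. Prior to lysis, AsPC-1 cells (25,000 per well) received a 2 h compound dose-response at 37 °C.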

The test system of a further experiment is AsPC-1 cells. Kind of experiment: AsPC-1 CTG Assay (CellTiter-Glo cell viability). In kind it is cell-based, human. The following applies: AsPC-1, 72 h, first value of the cell, read-out: G12D/C/V Cell Proliferation CTG (72 h) AsPC-1. In a few lines: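 IC50 values derive from 4-parameter logistic fits of CellTiter-Glo luminescence, expressed relative to DMSO. Compound dilution series were applied to overnight-seeded AsPC-1 or SW620 cells (RPMI 1640, 10% FBS) for 72 h at 37 °C, 5% CO2.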
In general terms: Cellular ATP, detected with luciferase, serves as a proxy for viable cell number.

The target of experiment [3] is His-tagged KRAS G12D protein (Homo sapiens (Human), UniProt P01116, G12D). Kind of experiment: KRAS G12D TR-FRET Assay. In kind it is binding. The conditions noted are these: read-out: KRAS G12D Binding IC50. In a few lines: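 Each incubation ran at room temperature: enzyme with compound for 30 minutes, peptide for one hour, and detection reagents (0.4 nM europium anti-6×His, 5 nM streptavidin-d2) for one hour more. Protein and peptide stocks were each diluted to 20 nM before addition.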
On the technique in general: In TR-FRET formats the signal depends on donor and acceptor labels being close together.

We go through 14 compounds from patent US20240294551A1 (AMGEN INC., priority 2022, published 2024).

Where two headings read alike, the source gives them in different places.

GDP-bound KRAS protein (aa 1-169), containing both G12D and C118A amino acid substitutions, sequence (P01116 other isoform, or with tags, fused parts or gaps G12D/C118A): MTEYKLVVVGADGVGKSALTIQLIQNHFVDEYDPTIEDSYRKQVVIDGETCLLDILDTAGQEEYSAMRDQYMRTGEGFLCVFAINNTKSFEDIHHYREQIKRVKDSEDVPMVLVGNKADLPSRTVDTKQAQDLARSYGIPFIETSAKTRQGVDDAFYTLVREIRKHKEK
His-tagged KRAS G12D protein, sequence (P01116 other isoform, or with tags, fused parts or gaps G12D): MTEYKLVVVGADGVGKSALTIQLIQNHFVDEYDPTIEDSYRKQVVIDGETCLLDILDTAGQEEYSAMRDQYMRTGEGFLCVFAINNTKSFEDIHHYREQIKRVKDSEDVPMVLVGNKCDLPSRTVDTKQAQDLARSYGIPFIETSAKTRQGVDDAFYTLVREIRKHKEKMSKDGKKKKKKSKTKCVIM

Take `Cc1cc2[nH]ncc2c2c1CCCCC(=O)N[C@]1(C)CCCCN(C1)c1nc(OC[C@@]34CCCN3C[C@H](F)C4)nc3c(F)c-2ncc13` [Example 280, (26R)-32-fluoro-4-(((2R,7aS)-2-fluorotetrahydro-1H-pyrrolo[1,2-a]pyrrol-7a(5H)-yl)methoxy)-18,26-dimethyl-1,3,5,9,14,15,25-heptaazahexacyclo[24.4.1.1~6,10~.0~2,7~.0~11,19~.0~12,16~]dotriaconta-2,4,6,8,10(32),11,13,16,18-nonaen-24-one]: the IC50 was determined as 3 nM in experiment [1]; 99 nM in experiment [2] (Homo sapiens, ASPC1, 2 h); 475 nM in the experiment on AsPC-1 cells (Homo sapiens, ASPC1, 72 h); 10 nM in experiment [3].
The matching figures for `O=C1N[C@@H]2C[C@H](O)CN(C2)c2nc(OC[C@@]34CCCN3C[C@H](F)C4)nc3c(F)c(ncc23)-c2c(c(Cl)cc3[nH]ncc23)CCCO1` [Example 284, (17R,19S)-9-chloro-30-fluoro-24-(((2R,7aS)-2-fluorotetrahydro-1H-pyrrolo[1,2-a]pyrrol-7a(5H)-yl)methoxy)-19-hydroxy-14-oxa-5,6,16,21,23,25,29-heptaazahexacyclo[24.3.1.1~17,21~.0~2,10~.0~3,7~.0~22,27~]hentriaconta-1(30),2,4,7,9,22,24,26,28-nonaen-15-one]: 2 nM, 41.3 nM, 788 nM and 5 nM.
The matching figures for `O=C1NCCCc2c(Cl)cc3[nH]ncc3c2-c2ncc3c(nc(OC[C@@]45CCCN4C[C@H](F)C5)nc3c2F)N2CCCC[C@H](C2)O1` [Example 288]: 2 nM, 102 nM, 427 nM and 7 nM.
Take `O=C1N[C@H]2C[C@@]3(CCCN(C3)c3nc(OC[C@@]45CCCN4C[C@H](F)C5)nc4c(F)c(ncc34)-c3c(c(Cl)cc4[nH]ncc34)CCO1)C2` [Example 289, 10-chloro-32-fluoro-24-(((2R,7aS)-2-fluorotetrahydro-1H-pyrrolo[1,2-a]pyrrol-7a(5H)-yl)methoxy)-6-oxa-4,13,14,19,23,25,27-heptaazaheptacyclo[25.3.1.1~1,3~.1~18,22~.0~9,17~.0~12,16~.0~21,26~]tritriaconta-9,11,14,16,18(32),19,21,23,25-nonaen-5-one]: the IC50 in experiment [1] stood at 6 nM; in experiment [2] (Homo sapiens, ASPC1, 2 h) it was 110 nM; with AsPC-1 cells (Homo sapiens, ASPC1, 72 h) it was 613 nM; in experiment [3], 10 nM.
As to `Cc1cc2[nH]ncc2c2c1CCCOC(=O)N[C@]1(C)CCCCN(C1)c1nc(OC[C@@]34CCCN3C[C@H](F)C4)nc3c(F)c-2ncc13` [Example 292, (26R)-32-fluoro-4-(((2R,7aS)-2-fluorotetrahydro-1H-pyrrolo[1,2-a]pyrrol-7a(5H)-yl)methoxy)-18,26-dimethyl-23-oxa-1,3,5,9,14,15,25-heptaazahexacyclo[24.4.1.1~6,10~.0~2,7~.0~11,19~.0~12,16~]dotriaconta-2,4,6(32),7,9,11,13,16,18-nonaen-24-one], the IC50 in experiment [1] came out at 2 nM; in experiment [2] (Homo sapiens, ASPC1, 2 h), 17.1 nM; in the experiment on AsPC-1 cells (Homo sapiens, ASPC1, 72 h) it was 178 nM; in experiment [3] it was 4 nM.
In the case of `Fc1c2ncc3c(nc(OC[C@@]45CCCN4C[C@H](F)C5)nc13)N1CCOC[C@H](C1)c1cnn(n1)CCCc1c(Cl)cc3[nH]ncc3c1-2` [Example 298, (1R)-10-chloro-33-fluoro-24-(((2R,7aS)-2-fluorotetrahydro-1H-pyrrolo[1,2-a]pyrrol-7a(5H)-yl)methoxy)-30-oxa-4,5,13,14,19,23,25,27,34-nonaazaheptacyclo[25.4.1.1~2,5~.1~18,22~.0~9,17~.0~12,16~.0~21,26~]tetratriaconta-2(34),3,9,11,14,16,18(33),19,21,23,25-undecaene], the IC50 in experiment [1] was 3 nM; in experiment [2] (Homo sapiens, ASPC1, 2 h) it was 91.3 nM; in the experiment on AsPC-1 cells (Homo sapiens, ASPC1, 72 h), 592 nM; in experiment [3], 7 nM.
As to `O=C1N[C@@H]2CCCCN(C2)c2nc(OC[C@@]34CCCN3C[C@H](F)C4)nc3c(F)c(ncc23)-c2c3c(cc4[nH]ncc24)CC[C@H]3CCO1` [Example 301, (16R,22S)-34-fluoro-8-(((2R,7aS)-2-fluorotetrahydro-1H-pyrrolo[1,2-a]pyrrol-7a(5H)-yl)methoxy)-19-oxa-3,7,9,11,17,28,29-heptaazaheptacyclo[20.9.1.1~2,6~.1~11,16~.0~5,10~.0~25,32~.0~27,31~]tetratriaconta-1(31),2(34),3,5,7,9,25(32),26,29-nonaen-18-one], the IC50 in experiment [1] was 3 nM; in experiment [2] (Homo sapiens, ASPC1, 2 h), 60.5 nM; in the experiment with AsPC-1 cells (Homo sapiens, ASPC1, 72 h), 954 nM; in experiment [3], 5 nM.
The matching figures for `C[C@@]12COCCN(C1)c1nc(OC[C@H]3CC[C@@H]4COCCN43)nc3c(F)c(ncc13)-c1c(c(Cl)cc3[nH]ncc13)CCCOC(=O)O2` [Example 308, (26S)-18-chloro-32-fluoro-4-((6R,8aR)-hexahydro-1H-pyrrolo[2,1-c][1,4]oxazin-6-ylmethoxy)-26-methyl-23,25,28-trioxa-1,3,5,9,14,15-hexaazahexacyclo[24.4.1.1~6,10~.0~2,7~.0~11,19~.0~12,16~]dotriaconta-2,4,6,8,10(32),11,13,16,18-nonaen-24-one]: 3 nM, 16.3 nM, 22 nM and 6 nM.
For `C[C@@]12COCCN(C1)c1nc(OC[C@@H]3CC[C@H]4COCCN43)nc3c(F)c(ncc13)-c1c(c(Cl)cc3[nH]ncc13)CCCOC(=O)O2` [Example 309, (26S)-18-chloro-32-fluoro-4-((6S,8aS)-hexahydro-1H-pyrrolo[2,1-c][1,4]oxazin-6-ylmethoxy)-26-methyl-23,25,28-trioxa-1,3,5,9,14,15-hexaazahexacyclo[24.4.1.1~6,10~.0~2,7~.0~11,19~.0~12,16~]dotriaconta-2,4,6,8,10(32),11,13,16,18-nonaen-24-one] the same measures were 4 nM, 71.6 nM, 153 nM and 10 nM.
For `O=C1OCCCc2c(Cl)cc3[nH]ncc3c2-c2ncc3c(nc(OC[C@@]45CCCN4C[C@H](F)C5)nc3c2F)N2CCOC[C@]3(C2)C[C@@H](C3)O1` [Example 312, (1S,3S)-11-chloro-34-fluoro-25-(((2R,7aS)-2-fluorotetrahydro-1H-pyrrolo[1,2-a]pyrrol-7a(5H)-yl)methoxy)-4,6,31-trioxa-14,15,20,24,26,28-hexaazaheptacyclo[26.4.1.1~1,3~.1~19,23~.0~10,18~.0~13,17~.0~22,27~]pentatriaconta-10,12,15,17,19(34),20,22,24,26-nonaen-5-one], the IC50 in experiment [1] was 2 nM; in experiment [2] (Homo sapiens, ASPC1, 2 h) it was 342 nM; in the experiment with AsPC-1 cells (Homo sapiens, ASPC1, 72 h), 1080 nM; in experiment [3] it was 4 nM.
Consider `O=C1OCCCc2c(Cl)cc3[nH]ncc3c2-c2ncc3c(nc(OC[C@@]45CCCN4C[C@H](F)C5)nc3c2F)N2CCOCC3(CC(C3)O1)C2` [Example 313], for which the IC50 was found to be 11 nM in experiment [1]; 462 nM in experiment [2] (Homo sapiens, ASPC1, 2 h); 1210 nM in the experiment with AsPC-1 cells (Homo sapiens, ASPC1, 72 h); 19 nM in experiment [3].
Take `CO[C@@H]1C[C@@H](COc2nc3c4cnc(c(F)c4n2)-c2c(c(Cl)cc4[nH]ncc24)CCCOC(=O)O[C@]2(C)COCCN3C2)N(C)C1` [Example 319, (26S)-18-chloro-32-fluoro-4-(((2S,4R)-4-methoxy-1-methyl-2-pyrrolidinyl)methoxy)-26-methyl-23,25,28-trioxa-1,3,5,9,14,15-hexaazahexacyclo[24.4.1.1~6,10~.0~2,7~.0~11,19~.0~12,16~]dotriaconta-2,4,6,8,10(32),11,13,16,18-nonaen-24-one]: the IC50 in experiment [1] is 3 nM; in experiment [2] (Homo sapiens, ASPC1, 2 h), 26.7 nM; with AsPC-1 cells (Homo sapiens, ASPC1, 72 h), 134 nM; in experiment [3], 6 nM.
For the compound `O=C1OCCCc2c(Cl)cc3[nH]ncc3c2-c2ncc3c(nc(OC[C@@]45CCCN4C[C@H](F)C5)nc3c2F)N2CCC[C@]3(C2)C[C@H](C3)O1` [Example 323, (1R,3S)-11-chloro-33-fluoro-25-(((2R,7aS)-2-fluorotetrahydro-1H-pyrrolo[1,2-a]pyrrol-7a(5H)-yl)methoxy)-4,6-dioxa-14,15,20,24,26,28-hexaazaheptacyclo[26.3.1.1~1,3~.1~19,23~.0~10,18~.0~13,17~.0~22,27~]tetratriaconta-10,12,15,17,19(33),20,22,24,26-nonaen-5-one], the IC50 worked out at 2 nM in experiment [1], 30.5 nM in experiment [2] (2 h), 318 nM in the experiment on AsPC-1 cells and 5 nM in experiment [3].
For `C[C@@H]1C[C@@H](COc2nc3c4cnc(c(F)c4n2)-c2c(c(Cl)cc4[nH]ncc24)CCCOC(=O)O[C@@H]2COCCN3C2)N(C)C1` [Example 328, (26S)-18-chloro-4-(((2S,4R)-1,4-dimethyl-2-pyrrolidinyl)methoxy)-32-fluoro-23,25,28-trioxa-1,3,5,9,14,15-hexaazahexacyclo[24.4.1.1~6,10~.0~2,7~.0~11,19~.0~12,16~]dotriaconta-2,4,6(32),7,9,11,13,16,18-nonaen-24-one], the IC50 in experiment [1] was found to be 3 nM; in experiment [2] (Homo sapiens, ASPC1, 2 h), 29 nM; in the experiment on AsPC-1 cells (Homo sapiens, ASPC1, 72 h) it was 50 nM; in experiment [3], 5 nM.
